Measurements as given in patent US9499466B2, “Diene-based carboxylate anion and salt thereof, and polymerizable or curable composition thereof” (NIPPON SHOKUBAI CO., LTD., priority 2010, dated 2016).
Each block holds one compound with its values, some of them ahead of it.

Legend:
[1] = Solubility test (dissolution method); conditions: for Solubility (dissolution method) Water: mixed at 1%, 3%, 5%, 10%, 20% or more
Source text: The solubility evaluation by the dissolution method requires complicated operations and a large amount of test sample. Therefore, this test is not suitable for screening. However, the solubility of each compound can be more accurately evaluated.

[2] = Solubility test (film-forming method); conditions: for Solubility (film-forming method) Water: solvent dropped on film on glass plate
Procedure: Each compound was applied on a glass plate and the glass plate was leaned against the wall. Each solvent shown in Table 5 was dropped (5 to 6 drops) on the glass plate with a pasteur pipette. The glass plate was visually observed after the dropped solvent was dried, the surface was optionally rubbed with a spatula, and the solubility (film-forming method) was evaluated according to the criteria shown in Table 4.

[3] = Adhesion of cured material to PET film (cross-cut method, JIS K 5600-5-6); conditions: UV-cured film on surface-untreated PET film, cross-cut 10×10
Procedure: Each compound shown in Table 11 was formed into a UV-cured film on a PET film in the same manner as in the pencil hardness test, except that the PET film used as a substrate was a surface-untreated polyethylene terephthalate (PET) film (Lumirror L-50T60, produced by Toray Industries, Inc.).
The adhesion of the UV-cured film to the PET film was evaluated based on JIS K 5600-5-6 (cross-cut method). The number of divided segments was 10×10 segments=100 segments. The adhesion was evaluated by the number of the segments which remain without peeling or damage in 100 segments.

SMILES: C=C(C)C(=O)[O-].C=CCOCC(=C)C(=O)[O-].[CH3][Sn+2][CH3] [(CH3)2Sn(AMA)1(MAA)1]
- Solubility (dissolution method) Toluene [1]: ◯◯ (Become uniform and transparent at a compound concentration of 20% or more)

SMILES: C=CCOCC(=C)C(=O)[O-].C=CCOCC(=C)C(=O)[O-].[CH3][Sn+2][CH3] [(CH3)2Sn(AMA)2]
- Solubility (dissolution method) Toluene [1]: ◯◯ (Become uniform and transparent at a compound concentration of 20% or more)

SMILES: C=CCOCC(=C)C(=O)[O-].C=CCOCC(=C)C(=O)[O-].CC(C)[O][Ti+2][O]C(C)C [(i-C3H7O)2Ti(AMA)2]
- Solubility (film-forming method) Acetone [2]: X-Δ
- Solubility (film-forming method) Acetonitrile [2]: X-Δ
- Solubility (film-forming method) Ethyl acetate [2]: X-Δ
- Solubility (film-forming method) Methanol [2]: X-Δ
- Solubility (film-forming method) THF [2]: X-Δ
- Solubility (film-forming method) Toluene [2]: X-Δ
- Solubility (dissolution method) Acetone [1]: ◯◯ (Become uniform and transparent at a compound concentration of 20% or more)
- Solubility (dissolution method) Acetonitrile [1]: ◯◯ (Become uniform and transparent at a compound concentration of 20% or more)
- Solubility (dissolution method) Ethyl acetate [1]: ◯◯ (Become uniform and transparent at a compound concentration of 20% or more)
- Solubility (dissolution method) Methanol [1]: ◯◯ (Become uniform and transparent at a compound concentration of 20% or more)
- Solubility (dissolution method) THF [1]: ◯◯ (Become uniform and transparent at a compound concentration of 20% or more)
- Solubility (dissolution method) Toluene [1]: ◯◯ (Become uniform and transparent at a compound concentration of 20% or more)
- Solubility (dissolution method) Water [1]: X (Not become uniform and transparent even at a compound concentration of 1%)

SMILES: C=CCOCC(=C)C(=O)[O-].C=CCOCC(=C)C(=O)[O-].CCC[O][Zr+2][O]CCC [(n-C3H7O)2Zr(AMA)2]
- Solubility (film-forming method) Acetone [2]: X-Δ
- Solubility (film-forming method) Acetonitrile [2]: X-Δ
- Solubility (film-forming method) Ethyl acetate [2]: X-Δ
- Solubility (film-forming method) Methanol [2]: X-Δ
- Solubility (film-forming method) THF [2]: X-Δ
- Solubility (film-forming method) Toluene [2]: X-Δ
- Solubility (dissolution method) Acetone [1]: ◯◯ (Become uniform and transparent at a compound concentration of 20% or more)
- Solubility (dissolution method) Acetonitrile [1]: X (Not become uniform and transparent even at a compound concentration of 1%)
- Solubility (dissolution method) Ethyl acetate [1]: ◯ (Become uniform and transparent at a compound concentration of 10%)
- Solubility (dissolution method) Methanol [1]: X (Not become uniform and transparent even at a compound concentration of 1%)
- Solubility (dissolution method) THF [1]: ◯◯ (Become uniform and transparent at a compound concentration of 20% or more)
- Solubility (dissolution method) Toluene [1]: ◯◯ (Become uniform and transparent at a compound concentration of 20% or more)
- Solubility (dissolution method) Water [1]: X (Not become uniform and transparent even at a compound concentration of 1%)

SMILES: C=CCOCC(=C)C(=O)[O-].C=CCOCC(=C)C(=O)[O-].C=CCOCC(=C)C(=O)[O-].[Al+3] [Al(AMA)3]
- Adhesion (segments remaining without peeling or damage in 100 segments) [3]: 100/100

SMILES: C=CCOCC(=C)C(=O)[O-].C=CCOCC(=C)C(=O)[O-].C=CCOCC(=C)C(=O)[O-].[Au+3] [Au(AMA)3]
- Solubility (film-forming method) Toluene [2]: X-Δ

SMILES: C=CCOCC(=C)C(=O)[O-].C=CCOCC(=C)C(=O)[O-].C=CCOCC(=C)C(=O)[O-].[Bi+3] [Bi(AMA)3]
- Solubility (film-forming method) Water [2]: X-Δ

SMILES: C=CCOCC(=C)C(=O)[O-].C=CCOCC(=C)C(=O)[O-].[Co+2] [Co(AMA)2]
- Solubility (film-forming method) Acetonitrile [2]: X-Δ
- Solubility (film-forming method) Methanol [2]: X-Δ
- Solubility (dissolution method) Toluene [1]: ◯◯ (Become uniform and transparent at a compound concentration of 20% or more)

SMILES: C=CCOCC(=C)C(=O)[O-].C=CCOCC(=C)C(=O)[O-].C=CCOCC(=C)C(=O)[O-].[Cr+3] [Cr(AMA)3]
- Solubility (film-forming method) Methanol [2]: X-Δ
- Solubility (dissolution method) Toluene [1]: ◯◯ (Become uniform and transparent at a compound concentration of 20% or more)

SMILES: C=CCOCC(=C)C(=O)[O-].C=CCOCC(=C)C(=O)[O-].[Cu+2] [Cu(AMA)2]
- Solubility (dissolution method) THF [1]: ◯◯ (Become uniform and transparent at a compound concentration of 20% or more)

SMILES: C=CCOCC(=C)C(=O)OCCOCCOC(=O)C(=C)COCC=C [DEG-AMA, diethylene glycol di(α-allyloxymethyl acrylate), reference compound]
- Solubility (dissolution method) Acetone [1]: ◯◯ (Become uniform and transparent at a compound concentration of 20% or more)
- Solubility (dissolution method) Acetonitrile [1]: ◯◯ (Become uniform and transparent at a compound concentration of 20% or more)
- Solubility (dissolution method) Ethyl acetate [1]: ◯◯ (Become uniform and transparent at a compound concentration of 20% or more)
- Solubility (dissolution method) Methanol [1]: ◯◯ (Become uniform and transparent at a compound concentration of 20% or more)
- Solubility (dissolution method) THF [1]: ◯◯ (Become uniform and transparent at a compound concentration of 20% or more)
- Solubility (dissolution method) Toluene [1]: ◯◯ (Become uniform and transparent at a compound concentration of 20% or more)
- Solubility (dissolution method) Water [1]: X (Not become uniform and transparent even at a compound concentration of 1%)
- Adhesion (segments remaining without peeling or damage in 100 segments) [3]: 85/100

SMILES: C=CC(=O)OCCOCCOC(=O)C=C [DEGDA, reference compound]
- Solubility (dissolution method) Acetone [1]: ◯◯ (Become uniform and transparent at a compound concentration of 20% or more)
- Solubility (dissolution method) Acetonitrile [1]: ◯◯ (Become uniform and transparent at a compound concentration of 20% or more)
- Solubility (dissolution method) Ethyl acetate [1]: ◯◯ (Become uniform and transparent at a compound concentration of 20% or more)
- Solubility (dissolution method) Methanol [1]: ◯◯ (Become uniform and transparent at a compound concentration of 20% or more)
- Solubility (dissolution method) THF [1]: ◯◯ (Become uniform and transparent at a compound concentration of 20% or more)
- Solubility (dissolution method) Toluene [1]: ◯◯ (Become uniform and transparent at a compound concentration of 20% or more)
- Solubility (dissolution method) Water [1]: X-Δ (Become uniform and transparent at a compound concentration of 1%)
- Adhesion (segments remaining without peeling or damage in 100 segments) [3]: 32/100

SMILES: C=CCOCC(=C)C(=O)[O-].C=CCOCC(=C)C(=O)[O-].C=CCOCC(=C)C(=O)[O-].[Er+3] [Er(AMA)3]
- Solubility (film-forming method) Water [2]: X-Δ
- Solubility (dissolution method) THF [1]: ◯◯ (Become uniform and transparent at a compound concentration of 20% or more)
- Solubility (dissolution method) Toluene [1]: ◯ (Become uniform and transparent at a compound concentration of 10%)

SMILES: C=CCOCC(=C)C(=O)[O-].C=CCOCC(=C)C(=O)[O-].C=CCOCC(=C)C(=O)[O-].[Eu+3] [Eu(AMA)3]
- Solubility (dissolution method) THF [1]: ◯◯ (Become uniform and transparent at a compound concentration of 20% or more)
- Solubility (dissolution method) Toluene [1]: ◯ (Become uniform and transparent at a compound concentration of 10%)

SMILES: C=CCOCC(=C)C(=O)[O-].C=CCOCC(=C)C(=O)[O-].C=CCOCC(=C)C(=O)[O-].[Fe+3] [Fe(AMA)3]
- Solubility (film-forming method) Water [2]: X-Δ
- Solubility (dissolution method) Toluene [1]: ◯◯ (Become uniform and transparent at a compound concentration of 20% or more)

SMILES: C=C(C)C(=O)[O-].C=CCOCC(=C)C(=O)[O-].C=CCOCC(=C)C(=O)[O-].[In+3] [In(AMA)2(MAA)1]
- Solubility (film-forming method) Methanol [2]: X-Δ
- Solubility (dissolution method) Toluene [1]: ◯◯ (Become uniform and transparent at a compound concentration of 20% or more)

SMILES: C=CCOCC(=C)C(=O)[O-].C=CCOCC(=C)C(=O)[O-].C=CCOCC(=C)C(=O)[O-].[In+3] [In(AMA)3]
- Solubility (film-forming method) Acetone [2]: X-Δ
- Solubility (film-forming method) Acetonitrile [2]: X-Δ
- Solubility (film-forming method) Ethyl acetate [2]: X-Δ
- Solubility (film-forming method) Methanol [2]: X-Δ
- Solubility (dissolution method) THF [1]: ◯◯ (Become uniform and transparent at a compound concentration of 20% or more)

SMILES: C=CCOCC(=C)C(=O)[O-].C=CCOCC(=C)C(=O)[O-].C=CCOCC(=C)C(=O)[O-].[La+3] [La(AMA)3]
- Solubility (film-forming method) Water [2]: X-Δ
- Solubility (dissolution method) THF [1]: ◯◯ (Become uniform and transparent at a compound concentration of 20% or more)
- Solubility (dissolution method) Toluene [1]: ◯ (Become uniform and transparent at a compound concentration of 10%)

SMILES: C=CCOCC(=C)C(=O)[O-].C=CCOCC(=C)C(=O)[O-].[Mn+2] [Mn(AMA)2]
- Solubility (film-forming method) Water [2]: X-Δ
- Solubility (dissolution method) Toluene [1]: ◯◯ (Become uniform and transparent at a compound concentration of 20% or more)

SMILES: C=CCOCC(=C)C(=O)OCC(C)(C)COC(=O)C(=C)COCC=C [NPG-AMA, neopentyl glycol di(α-allyloxymethyl acrylate), reference compound]
- Solubility (dissolution method) Acetone [1]: ◯◯ (Become uniform and transparent at a compound concentration of 20% or more)
- Solubility (dissolution method) Acetonitrile [1]: ◯◯ (Become uniform and transparent at a compound concentration of 20% or more)
- Solubility (dissolution method) Ethyl acetate [1]: ◯◯ (Become uniform and transparent at a compound concentration of 20% or more)
- Solubility (dissolution method) Methanol [1]: ◯◯ (Become uniform and transparent at a compound concentration of 20% or more)
- Solubility (dissolution method) THF [1]: ◯◯ (Become uniform and transparent at a compound concentration of 20% or more)
- Solubility (dissolution method) Toluene [1]: ◯◯ (Become uniform and transparent at a compound concentration of 20% or more)
- Solubility (dissolution method) Water [1]: X (Not become uniform and transparent even at a compound concentration of 1%)
- Adhesion (segments remaining without peeling or damage in 100 segments) [3]: 72/100

SMILES: C=C(C)C(=O)[O-].C=CCOCC(=C)C(=O)[O-].[Ni+2] [Ni(AMA)1(MAA)1]
- Solubility (dissolution method) Toluene [1]: ◯◯ (Become uniform and transparent at a compound concentration of 20% or more)

- Solubility (film-forming method) Water [2]: X-Δ
SMILES: C=C(C)COCC(=C)C(=O)[O-].C=C(C)COCC(=C)C(=O)[O-].[Zn+2] [Zn(MAMA)2]
- Solubility (dissolution method) Toluene [1]: ◯◯ (Become uniform and transparent at a compound concentration of 20% or more)
